Measurements as given in PMC10154249, “Unique progerin C-terminal peptide ameliorates Hutchinson–Gilford progeria syndrome phenotype by rescuing BUBR1” (Nature Aging, 2023).

Legend:
Lmna^G609G/G609G mice = test: Survival (Kaplan–Meier) of Lmna^G609G/G609G mice; assay type: in vivo, mouse
From the text: All animal experiments were approved by the Ethics Committee of School of Life Sciences, Northeast Normal University, China (AP20191011) and carried out in accordance with the relevant guidelines: National Standards of the People’s Republic of China (GB/T 35892–2018), Laboratory Animal—Guideline for Ethical Review of Animal Welfare. We generated a mouse model (ICR background), carrying the Lmna^G609G using the BE4-Gam system. The protocols for the BE4-Gam system and microinjection of pronuclear-stage embryos have been described in detail previously[37],[38],[59]. Briefly, a mixture of BE4-Gam mRNA (200 ng μl^–1) and sgRNA-Lmna (30 ng μl^–1) was coinjected into the cytoplasm of pronuclear-stage embryos of the mouse. The injected embryos were transferred to embryo culture medium for 30–60 min, followed by transferring the injected embryos into the recipient mother. The embryos continued to develop and the founder mice (referred to as F0) were born: wild-type mice (Lmna^+/+), heterozygous mice (Lmna^G609G/+) and homozygous mice (Lmna^G609G/G609G). F1 heterozygous mice (Lmna^G609G/+) were obtained by crossing F0 heterozygous mice (Lmna^G609G/+). F2 homozygous mice (Lmna^G609G/G609G) were obtained by crossing F1 heterozygous mice (Lmna^G609G/+). We selected F2 mice (Lmna^+/+ and Lmna^G609G/G609G) for subsequent experiments. The mice were housed with a 12-h light/dark cycle (6:00 to 18:00) in a 20 °C and 40% humidity-controlled room. Water and rodent feed were fed ad libitum.
For UPCP injection, 14-day-old Lmna^G609G/G609G mice were injected intraperitoneally with either PBS or UPCP (20 mg kg^–1, every other day) and wild-type mice were injected with PBS. All phenotypic analyses were performed after 12 weeks of treatment with UPCP. Bodyweight and lifespan were monitored after UPCP treatment. The survival rate was analyzed by the Kaplan–Meier method. We only included mice that were of sufficient bodyweight at the start of the experiment, typically at least 80% of the average littermate weight of the same sex and genotype. All animals meeting criteria for inclusion were then divided randomly into three groups according to genotype (Lmna^+/+, Lmna^G609G/G609G-Mock and Lmna^G609G/G609G-UPCP).

IMR90 cells = test: Ki67 immunofluorescence of IMR90 cells; assay type: cell-based, human
Description: (§1) Immunofluorescence was performed as described previously. Cells were plated on cover slips in 12-well plates, left overnight before the treatment. Cells were fixed in 1% formaldehyde in culture medium for 10 min at 37 °C and permeabilized with 0.2% Triton X-100 in PBS for 10 min at room temperature. Cells were washed twice in PBS and blocked for 1 h with 5% BSA in PBS and then incubated with primary antibodies at 4 °C overnight, washed three times in PBS and incubated with secondary antibodies for 1 h at room temperature. Cell nuclei were counterstained with a 500 nM concentration of 4,6-diamidino-2-phenylindole (DAPI) (Sigma). Images were acquired by a fluorescence microscope (OLYMPUS FV-1000, Carl Zeiss LSM880 or Leica DMi8) and analyzed with software NIS-Elements AR v.5.0.1 (Nikon), FLUOVIEW v.4.2b (OLYMPUS), ZEN v.2.3 SP1 (Carl Zeiss) and Leica Application Suite X v.3.6.0.24 (Leica). Cells were quantified by investigators who were blinded to the identity of the analyzed cell.

HGADFN167 cells = test: Ki67 immunofluorescence of HGADFN167 cells; assay type: cell-based, human
Description: as §1

HGADFN003 cells [1] = test: CyclinA2 immunofluorescence of HGADFN003 cells; assay type: cell-based, human
Description: as §1

[2] = system: BUBR1 in IMR90-progerin cells; test: Western blot of BUBR1 in progerin-expressing IMR90 cells; assay type: cell-based, human
Description: Western blot was performed as previously described. Cells were lysed in 1× Laemmli sample buffer after washing twice in cold PBS without calcium and magnesium. Protein concentrations were determined using the bicinchoninic acid (BCA) protein assay. Protein lysates were subjected to SDS–PAGE, transferred to 0.45-μm pore size hydrophobic PVDF transfer membrane (Merck Millipore), detected with the appropriate primary antibodies coupled with horseradish peroxidase-conjugated corresponding secondary antibodies, and visualized using enhanced chemiluminescence ECL reagent (GE Healthcare). The Tanon 5500 high-definition low-illumination CCD system (Tanon FLI Capture v.1.02) was used to capture chemiluminescent signals.

HGADFN003 cells [3] = test: Ki67 immunofluorescence of HGADFN003 cells; assay type: cell-based, human; conditions: for Relative percentage of Ki67 positive cells: Fig. 5b, Mock 32, 39, 45, P=0.0148; for Ki67 positive cells: HGADFN003, Extended Data Fig. 10e
Description: as §1

Substance: H-YGRKKRRQRRRYNLRSRTVLCGTCGQPADKASASGSGAQSPQNCSIM-OH (cysteines drawn unpaired) [UPCP, unique progerin C-terminal peptide]
- mean survival (Lmna^G609G/G609G mice; 20 mg kg^–1 i.p. every other day from 14 days of age, PBS 100.9 days): 118.6 days
- median survival (Lmna^G609G/G609G mice; 20 mg kg^–1 i.p. every other day from 14 days of age, n = 15 UPCP vs n = 17 PBS (100 days)): 117 days
- individual survival (Lmna^G609G/G609G mice; 20 mg kg^–1 i.p. every other day, female, individual 1 of 9): 103 days
- individual survival (Lmna^G609G/G609G mice; 20 mg kg^–1 i.p. every other day, female, individual 2 of 9): 110 days
- individual survival (Lmna^G609G/G609G mice; 20 mg kg^–1 i.p. every other day, female, individual 3 of 9): 110 days
- individual survival (Lmna^G609G/G609G mice; 20 mg kg^–1 i.p. every other day, female, individual 4 of 9): 111 days
- individual survival (Lmna^G609G/G609G mice; 20 mg kg^–1 i.p. every other day, female, individual 5 of 9): 117 days
- individual survival (Lmna^G609G/G609G mice; 20 mg kg^–1 i.p. every other day, female, individual 6 of 9): 126 days
- individual survival (Lmna^G609G/G609G mice; 20 mg kg^–1 i.p. every other day, female, individual 7 of 9): 128 days
- individual survival (Lmna^G609G/G609G mice; 20 mg kg^–1 i.p. every other day, female, individual 8 of 9): 130 days
- individual survival (Lmna^G609G/G609G mice; 20 mg kg^–1 i.p. every other day, female, individual 9 of 9): 136 days
- individual survival (Lmna^G609G/G609G mice; 20 mg kg^–1 i.p. every other day, male, individual 1 of 6): 104 days
- individual survival (Lmna^G609G/G609G mice; 20 mg kg^–1 i.p. every other day, male, individual 2 of 6): 106 days
- individual survival (Lmna^G609G/G609G mice; 20 mg kg^–1 i.p. every other day, male, individual 3 of 6): 116 days
- individual survival (Lmna^G609G/G609G mice; 20 mg kg^–1 i.p. every other day, male, individual 4 of 6): 118 days
- individual survival (Lmna^G609G/G609G mice; 20 mg kg^–1 i.p. every other day, male, individual 5 of 6): 129 days
- individual survival (Lmna^G609G/G609G mice; 20 mg kg^–1 i.p. every other day, male, individual 6 of 6): 135 days
- increase in lifespan (median survival) (Lmna^G609G/G609G mice; 20 mg kg^–1 i.p. every other day, vs PBS-treated mice): 17%
- Ki67 positive cells (IMR90 cells; IMR90, replicate 1): 73%
- Ki67 positive cells (IMR90 cells; IMR90, replicate 2): 84%
- Ki67 positive cells (IMR90 cells; IMR90, replicate 3): 87%
- Ki67 positive cells (HGADFN167 cells; HGADFN167, replicate 1): 53%
- Ki67 positive cells (HGADFN167 cells; HGADFN167, replicate 2): 45%
- Ki67 positive cells (HGADFN167 cells; HGADFN167, replicate 3): 56%
- CyclinA2 positive cells (HGADFN003 cells [1]; HGADFN003, 2h, replicate 1): 25%
- CyclinA2 positive cells (HGADFN003 cells [1]; HGADFN003, 2h, replicate 2): 35.7143%
- CyclinA2 positive cells (HGADFN003 cells [1]; HGADFN003, 2h, replicate 3): 33.3333%
- CyclinA2 positive cells (HGADFN003 cells [1]; HGADFN003, 4h, replicate 1): 42.8571%
- CyclinA2 positive cells (HGADFN003 cells [1]; HGADFN003, 4h, replicate 2): 43.4783%
- CyclinA2 positive cells (HGADFN003 cells [1]; HGADFN003, 4h, replicate 3): 31.8182%
- CyclinA2 positive cells (HGADFN003 cells [1]; HGADFN003, 6h, replicate 1): 35.2941%
- CyclinA2 positive cells (HGADFN003 cells [1]; HGADFN003, 6h, replicate 2): 33.3333%
- CyclinA2 positive cells (HGADFN003 cells [1]; HGADFN003, 6h, replicate 3): 45.8333%
- CyclinA2 positive cells (HGADFN003 cells [1]; HGADFN003, 24h, replicate 1): 42.3077%
- CyclinA2 positive cells (HGADFN003 cells [1]; HGADFN003, 24h, replicate 2): 41.1765%
- CyclinA2 positive cells (HGADFN003 cells [1]; HGADFN003, 24h, replicate 3): 48.5714%
- CyclinA2 positive cells (HGADFN003 cells [1]; HGADFN003, 48h, replicate 1): 59.0909%
- CyclinA2 positive cells (HGADFN003 cells [1]; HGADFN003, 48h, replicate 2): 58.3333%
- CyclinA2 positive cells (HGADFN003 cells [1]; HGADFN003, 48h, replicate 3): 56.7568%
- level of CyclinA2 (HGADFN003 cells [1]; HGPS cells): increased level of CyclinA2
- BUBR1 abundance [2]: upregulated BUBR1
- Relative percentage of Ki67 positive cells (HGADFN003 cells [3]; HGADFN003, replicate 1): 54%
- Relative percentage of Ki67 positive cells (HGADFN003 cells [3]; HGADFN003, replicate 2): 62%
- Relative percentage of Ki67 positive cells (HGADFN003 cells [3]; HGADFN003, replicate 3): 68%
- Ki67 expression (FTI-277/UPCP comparison, words) (HGADFN003 cells [3]; HGADFN003): increasing expression of BUBR1, CyclinA2 and Ki67
- Ki67 positive cells (HGADFN003 cells [3]; replicate 1): 65%
- Ki67 positive cells (HGADFN003 cells [3]; replicate 2): 55%
- Ki67 positive cells (HGADFN003 cells [3]; replicate 3): 72%
- Ki67 positive staining (HGADFN003 cells [3]; HGPS cells): increased Ki67 positive staining
